US11800869B2, “Use of 6-oxo-1,4,5,6-tetrahydropyridazine-3-carboxylic acid, 1-methyl 6-oxo-1,4,5,6-tetrahydropyridazine-3-carboxylic acid and 1-alkyl-6-oxo-1,4,5,6-tetrahydropyridazine-3-carboxylic acid for improving growth performance in plants” (Advanced Crop Chem LLP, priority 2020, dated 2023)
Marks after values point to notes of the source that are not given here.

What was measured:
Type in all cases: in vivo
[1] = tested on: Corn; assay: Seed treatment plus foliar spray, root and shoot biomass and emergence, corn (Example 2)
Description: Winter wheat variety AWC 13 seeds were treated with either 6-oxo-1,4,5,6-tetrahydropyridazine-3-carboxylic acid (THP) or 1-methyl 6-oxo-1,4,5,6 tetrahydropyridazine-3-carboxylic acid (MTHP) at an effective rate of 10g diluted in 2 L water plus 0.25% Nouryon wetter and applied to 1 ton of seed. These seed were planted in coarse river sand and grown in a greenhouse under ambient light at the greenhouse at 21° C. Plants were irrigated every other day with water containing 50% strength Hoaglands solution. Plants were assessed for emergence and biomass accumulation 30 days after planting. The plants from seeds treated with 6-oxo-1,4,5,6-tetrahydropyridizin-3-carboxylic acid or 1-methyl 6-oxo-1,4,5,6 tetrahydropyridazine-3-carboxylic acid had larger root biomasses (0.83, 0.85 g, dry weight/plant) compared with plants from untreated seeds (0.65 g dry weight/plant). Wheat, corn and pepper seeds were treated with 6-oxo-1,4,5,6-tetrahydropyridizine-3-carboxylic acid (THP) using the same methodology and growth conditions as described in example 1 and the resulting plants were also treated with a light foliar cover spray using an electric hand-held sprayer. (100 g in 200 L water plus 0.25% Nouryon wetter) of 6-oxo-1,4,5,6 tetrahydropyridazine-3-carboxylic acid (30 days post emergence (wheat at Zadoks GS 14 (see FIG. 1), maize at V2, Pepper at 3-4 leaf stage) and then assessed for root and shoot biomass 45 days later. At 75 days post planting the plants were assessed for root and shoot biomass as measured with dry weight.

[2] = tested on: Wheat seeds; assay: Wheat seed treatment, in vitro germination and early growth compared with Take Off (Example 11); settings: 10 g per ton of seed; petri dishes, 20C; FIG. 6
Description: Referring to FIG. 6, illustrated are three photographs 600 of an In vitro assessment of the effects on the germination and early stage growth of wheat following treatment of naked wheat seed with of 6-oxo-1,4,5,6 tetrahydropyridazine-3-carboxylic acid. Untreated 610, THP 620 and a commercial seed treatment, Take Off® 630. The seed shown in 620 was grown under natural daylight conditions at 20-22 degrees Centigrade. Wheat seeds were treated with 6-oxo-1,4,5,6 tetrahydropyridazine-3-carboxylic acid or a commercial seed treatment at labeled rates (Take Off ST) and allowed to germinate to examine and compare the effects of temperature on germination. Wheat seeds were treated with 6-oxo-1,4,5,6 tetrahydropyridazine-3-carboxylic acid or Take Off, a commercial biostimulant (that claims faster germination and emergence). The treated seeds received the treatment compounds at the rate of 10 g per ton of seed utilizing the same dosing methodology as Example 1. However in this case seeds were germinated on moistened absorbent paper towel discs in closed petri dishes. The seeds were incubated at 20C in darkness until germination commenced and then grown in natural diurnal conditions for a further 12 days.

[3] = tested on: field grown wheat; assay: Field grown wheat plots, foliar treatment, yield (Example 12); settings: foliar treatment at Zadocks GS 30
Description: Field grown wheat plants (Var: AWC 13) were given foliar treatment at Zadoks GS 25-26 (FIG. 1) of 6-oxo-1,4,5,6 tetrahydropyridazine-3-carboxylic acid (THP) or 1-methyl 6-oxo-1,4,5,6 tetrahydropyridazine-3-carboxylic acid (MTHP) both at 100 g in 200 L water plus 0.25% Nouryon wetter. Plants were grown under standard UK wheat growing cultural practice (https://andb.org.uk/wheatgg). Yield was assessed at harvest.
Nine field grown wheat plots (20 m^2) were established. In each plot, the area was split into two and one half treated with 6-oxo-1,4,5,6 tetrahydropyridazine-3-carboxylic acid (THP) to assess for effects on yield. Plants were treated at Zadocks GS 30 as described in example 6 under standard cultural practices. The average yield response compared to the untreated plants across all sites was 0.596 tons per hectare.

[4] = tested on: Winter wheat variety AWC 13; assay: Wheat seed treatment, field grown, root biomass (Example 14); settings: untreated 0.66
Description: Wheat seeds were treated with 6-oxo-1,4,5,6 tetrahydropyridizine-3-carboxylic acid treated plants to examine the impact on shoot and root biomass for field grown plants. Winter wheat variety AWC 13 seeds were treated with 6-oxo-1,4,5,6-tetrahydropyridazine-3-carboxylic acid and field grown. The plants from seeds treated with 6-oxo-1,4,5,6 tetrahydropyridazine-3-carboxylic acid had larger root biomass (0.85 g dry weight/plant) compared with plants from untreated seeds (0.66 g dry weight/plant).

[5] = tested on: Wheat seeds; assay: Wheat seed treatment, seedling emergence at two temperatures (Example 15); settings: 10 g/ton of seeds
Description: Wheat seeds were treated with 6-oxo-1,4,5,6-tetrahydropyridizin-3-carboxylic acid at two different temperature regimes to investigate the affect on germination. Soil temperature impacts the percentage of seeds germinating and how fast seedlings emerge from the soil. Each of these parameters influences how well the plants develop and ultimately crop yield. […] Wheat seeds were treated with 6-oxo-1,4,5,6 tetrahydropyridazine-3-carboxylic acid (THP) at a rate of 10 g/ton of seeds in accordance with the methodology of example 1. Seeds were planted in 12″×12″ germination trays in a 1″ grid, 100 seeds per tray. Growth media was coarse river sand. Additionally, each cell in the grid received one granule of Osmacote approximately above where the seed was planted. Trays were irrigated every day. The seeds were then allowed to germinate at controlled environment chambers at either 10C (50F) or 20C (68 F) to examine the effects at different temperatures. The number of seedlings emerged was tracked daily.

[6] = tested on: wheat seedlings; assay: Foliar treatment of wheat seedlings, recovery from drought stress (Example 18); design: dose or concentration left out as unconfirmed; settings: Drought stressed 10 days then 16 days regrowth
Description: Sets of wheat seedlings were given two foliar treatments with 6-oxo-1,4,5,6-tetrahydropyridazine-3-carboxylic acid to examine seedling recovery from drought stress. […] Seedlings were given two foliar treatments: the first at Zadoks GS 12 and at Zadoks GS 14 (FIG. 1). The plants were grown in a greenhouse and fed a standard plant nutrient solution. The plants were drought stressed for 10 days after which water and nutrients were resumed and the plants were allowed to grow for 16 days.

[7] = seed treatment plus foliar spray 100 g in 200 L, 75 days post planting

O=C1CCC(C(=O)O)=NN1 [THP, 6-oxo-1,4,5,6 tetrahydropyridazine-3-carboxylic acid]
Root Dry Weight, % Difference vs Untreated [1, 7]: 8% | Shoot Dry Weight, % Difference vs Untreated [1, 7]: 3% | Emergence, % Difference vs Untreated ([1]; seed treatment, % Emergence at 10 days post planting): 11% | root biomass compared with untreated seeds or Take Off treated seeds [2]: greater root biomass | shoots compared with untreated seeds or Take Off treated seeds [2]: longer bright green shoots | Yield as Percent Increase over Untreated ([3]; Field 1): 6.25* % | Yield as Percent Increase over Untreated ([3]; Field 2): 8.7* % | Yield as Percent Increase over Untreated ([3]; Field 3): −0.3% | Yield as Percent Increase over Untreated ([3]; Field 4): 13.9* % | Yield as Percent Increase over Untreated ([3]; Field 5): 3.0% | Yield as Percent Increase over Untreated ([3]; Field 6): 3.3% | Yield as Percent Increase over Untreated ([3]; Field 7): 6.5% | Yield as Percent Increase over Untreated ([3]; Field 8): 9.8* % | Yield as Percent Increase over Untreated ([3]; Field 9): 8.1* % | average yield response compared to the untreated plants across all sites ([3]; nine field plots): 0.596 tons per hectare | root biomass [4]: 0.85 g dry weight/plant | % Emergence ([5]; 10 C., 5 days after planting): 0% | % Emergence ([5]; 10 C., 6 days after planting): 0% | % Emergence ([5]; 10 C., 7 days after planting): 11% | % Emergence ([5]; 10 C., 8 days after planting): 19% | % Emergence ([5]; 10 C., 9 days after planting): 27% | % Emergence ([5]; 10 C., 10 days after planting): 60% | % Emergence ([5]; 10 C., 11 days after planting): 68% | % Emergence ([5]; 20 C., 5 days after planting): 14% | % Emergence ([5]; 20 C., 6 days after planting): 48% | % Emergence ([5]; 20 C., 7 days after planting): 80% | % Emergence ([5]; 20 C., 8 days after planting): 100% | % Emergence ([5]; 20 C., 9 days after planting): 100% | % Emergence ([5]; 20 C., 10 days after planting): 100% | % Emergence ([5]; 20 C., 11 days after planting): 100% | Number of seed heads, avg. ([6]; untreated drought stressed 7.1, normal water 5.4): 8.3 | Total foliar fresh wt., avg. ([6]; untreated drought stressed 28.2, normal water 32.3): 33.4 g
